# Test results from ChEMBL document CHEMBL3352405, “Design and synthesis of sulfamoyl benzoic acid analogues with subnanomolar agonist activity specific to the LPA2 receptor” (J Med Chem, 2014).
# Tests used:
# [1] = target: T1, Lysophosphatidic acid receptor 2 (Homo sapiens, UniProt Q9HBW0); assay: Agonist activity at human LPA2 expressed in LPA1xLPA2 double knockout mouse MEF cells by Fura-2AM dye based Ca2+ mobilization assay relative to LPA 18:1; assay type: functional, cell-based
# [2] = target: T2, Lysophosphatidic acid receptor 3 (Homo sapiens, UniProt Q9UBY5); assay: Antagonist activity at human LPA3 expressed in RH7777 cells assessed as reduction in […]-induced calcium mobilization by Fura-2AM dye based Ca2+ mobilization assay
# T2 sequence (Q9UBY5 whole entry): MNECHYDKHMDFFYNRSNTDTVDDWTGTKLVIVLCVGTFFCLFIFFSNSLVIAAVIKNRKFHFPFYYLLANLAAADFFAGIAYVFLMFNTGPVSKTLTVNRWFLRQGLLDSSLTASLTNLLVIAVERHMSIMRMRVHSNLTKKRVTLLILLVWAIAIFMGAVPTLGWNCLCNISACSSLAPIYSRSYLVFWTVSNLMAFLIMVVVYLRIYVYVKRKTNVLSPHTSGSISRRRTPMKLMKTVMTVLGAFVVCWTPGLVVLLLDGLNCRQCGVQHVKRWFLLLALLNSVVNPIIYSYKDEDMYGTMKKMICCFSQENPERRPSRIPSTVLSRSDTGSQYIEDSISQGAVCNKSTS
# [3] = target: T1, Lysophosphatidic acid receptor 2; assay: Agonist activity at human LPA2 expressed in LPA1xLPA2 double knockout mouse MEF cells by Fura-2AM dye based Ca2+ mobilization assay; assay type: functional, cell-based
# [4] = target: Lysophosphatidic acid receptor 1 (Homo sapiens, UniProt Q92633); assay: Agonist activity at human LPA1 expressed in RH7777 cells up to 10 uM by Fura-2AM dye based Ca2+ mobilization assay
# Chain of Lysophosphatidic acid receptor 1 (Q92633 whole entry): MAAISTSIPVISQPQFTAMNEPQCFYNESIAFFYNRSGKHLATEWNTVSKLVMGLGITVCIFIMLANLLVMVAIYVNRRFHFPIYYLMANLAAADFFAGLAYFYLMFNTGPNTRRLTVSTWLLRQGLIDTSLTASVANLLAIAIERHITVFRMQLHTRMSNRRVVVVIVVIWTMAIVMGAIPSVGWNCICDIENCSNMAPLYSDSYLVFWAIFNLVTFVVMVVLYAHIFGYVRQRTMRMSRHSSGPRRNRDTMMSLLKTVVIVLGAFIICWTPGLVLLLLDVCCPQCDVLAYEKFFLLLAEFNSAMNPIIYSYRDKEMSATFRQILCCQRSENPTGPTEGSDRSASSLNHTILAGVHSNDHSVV
# T1 sequence (Q9HBW0 whole entry): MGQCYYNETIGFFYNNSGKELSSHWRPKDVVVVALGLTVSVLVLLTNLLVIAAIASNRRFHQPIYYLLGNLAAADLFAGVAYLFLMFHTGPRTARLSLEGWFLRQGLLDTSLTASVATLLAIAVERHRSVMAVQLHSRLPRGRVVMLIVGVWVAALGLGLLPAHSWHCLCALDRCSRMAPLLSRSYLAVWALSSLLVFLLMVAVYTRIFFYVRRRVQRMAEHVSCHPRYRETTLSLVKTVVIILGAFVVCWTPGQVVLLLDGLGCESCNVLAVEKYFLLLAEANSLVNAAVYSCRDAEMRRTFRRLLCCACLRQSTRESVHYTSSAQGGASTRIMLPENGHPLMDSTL
Emax [1] [%],IC50 [2] [µM],EC50 [3] [µM],EC50 [4] [µM],SMILES
,,2.16,,O=C(O)c1ccccc1S(=O)(=O)NCCCN1C(=O)c2cccc3cccc(c23)C1=O
100,,1.42,,O=C(O)c1ccccc1S(=O)(=O)NCCCCCN1C(=O)c2cccc3cccc(c23)C1=O
100,,0.11,,O=C(O)c1ccccc1S(=O)(=O)NCCCCN1C(=O)c2cccc3cccc(c23)C1=O
,,,0.35,CCCCCCCC/C=C\CCCCCCCC(=O)OC[C@@H](O)COP(=O)(O)O [LYSOPHOSPHATIDIC ACID]
124,,,,O=C(O)c1cc(Cl)ccc1S(=O)(=O)NCCCCN1C(=O)c2cccc3cccc(c23)C1=O

# The remaining lines, values behind:
SMILES,Emax [1] [%],IC50 [2] [µM],EC50 [3] [µM],EC50 [4] [µM]
O=C(O)c1ccc2c(c1)S(=O)(=O)N(CCCCN1C(=O)c3cccc4cccc(c34)C1=O)C2=O,100,,,
O=C(O)c1ccccc1SCCCN1C(=O)c2cccc3cccc(c23)C1=O,75,6.6,,
O=C(O)c1cc(Br)ccc1S(=O)(=O)NCCCCN1C(=O)c2cccc3cccc(c23)C1=O,104,,0.06,
O=C(O)c1cc(F)ccc1S(=O)(=O)NCCCCN1C(=O)c2cccc3cccc(c23)C1=O,119,,0.00015,
O=C(O)c1ccc(Br)cc1S(=O)(=O)NCCCCN1C(=O)c2cccc3cccc(c23)C1=O,100,,0.05,
